Results published in patent US9283280B2, “Compositions for drug administration” (Aegis Therapeutics, LLC, priority 2008, dated 2016).

Key:
[1] = Intranasal triptans with alkylsaccharide in rats, plasma levels by HPLC; assay type: in vivo;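 further: rats in groups of eight given 20 µL into one nostril, dose expressed as triptan free base, Cmax and Tmax read from plasma concentration–time curves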
Protocol: Each set of drug solutions is administered to six groups of eight rats each by 20 uL instillation to a single nare of each animal. […] After the last blood sample is collected each animal is cuthanizcd with CO2. After blood collection, plasma is immediately prepared from each blood sample using lithium/heparin as the anticoagulant. Plasma samples are stored at −70° C. until analyzed. […] The observed Tmax values from each plot is determined by inspection of the concentration vs time plots and recorded as shown in Table XII. The doses designated in this table reflect amounts of triptan free base in each case.

[2] = system: blood D-glucose; experiment: Glucagon eye drops with surfactant in rats, elevation of blood D-glucose; conditions: for Blood Glucose Concentration: glucagon eye drops + 0.5% surfactant added after 120 min
Protocol: Glucagon absorption from the eye was measured in rats given eye drops containing various surfactants plus glucagon (30 μg) (Eli Lilly, Indianapolis, Ind.) by monitoring an elevation in blood D-glucose levels. In these experiments, rats were anesthetized with sodium pentobarbital rather than xylazine/ketamin.
Paired animals that receive eye drops containing the surfactant alone, or glucagon alone, were compared to animals receiving eye drops with the surfactant plus glucagon.

[3] = system: blood D-glucose; experiment: Insulin eye drops with absorption enhancer in xylazine/ketamine-anesthetized hyperglycemic rats, blood D-glucose; assay type: in vivo, rat
[4] = Naratriptan 0.22 mg/kg intranasal, alkylsaccharide 0.02%
[5] = Naratriptan 0.22 mg/kg intranasal, alkylsaccharide 0.05%
[6] = Naratriptan 0.22 mg/kg intranasal, alkylsaccharide 0.1%
[7] = Naratriptan 0.22 mg/kg intranasal, alkylsaccharide 0.5%
[8] = Naratriptan 0.22 mg/kg intranasal, alkylsaccharide 2%
[9] = Sumatriptan 6.2 mg/kg intranasal, alkylsaccharide 0.02%
[10] = Sumatriptan 6.2 mg/kg intranasal, alkylsaccharide 0.05%
[11] = Sumatriptan 6.2 mg/kg intranasal, alkylsaccharide 0.1%
[12] = Sumatriptan 6.2 mg/kg intranasal, alkylsaccharide 0.5%
[13] = Sumatriptan 6.2 mg/kg intranasal, alkylsaccharide 2%

## CCCCCCCCCCO[C@@H]1O[C@H](CO)[C@@H](O[C@H]2O[C@H](CO)[C@@H](O)[C@H](O)[C@H]2O)[C@H](O)[C@H]1O [decyl maltoside, decyl-β-D-maltoside]
[1]; [4]
  Ratio Cmax(alkylsacch)/Cmax(No alkylsacch): ≦1.5
  Tmax: ~1 to 2 h
[1]; [5]
  Ratio Cmax(alkylsacch)/Cmax(No alkylsacch): ≦1.5
  Tmax: ~1 to 2 h
[1]; [6]
  Ratio Cmax(alkylsacch)/Cmax(No alkylsacch): ≧1.5
  Tmax: ~1 to 2 h
[1]; [7]
  Ratio Cmax(alkylsacch)/Cmax(No alkylsacch): ≧1.5
  Tmax: ~0.083 to 0.25 h
[1]; [8]
  Ratio Cmax(alkylsacch)/Cmax(No alkylsacch): ≧1.5
  Tmax: ~0.083 to 0.25 h
[1]; Rizatriptan […] intranasal, alkylsaccharide 0.02%
  Tmax: ~1 to 2 h
[1]; Rizatriptan […] intranasal, alkylsaccharide 0.05%
  Tmax: ~1 to 2 h
[1]; Rizatriptan […] intranasal, alkylsaccharide 0.1%
  Tmax: ~1 to 2 h
[1]; Rizatriptan […] intranasal, alkylsaccharide 0.5%
  Tmax: ~0.083 to 0.25 h
[1]; Rizatriptan […] intranasal, alkylsaccharide 2%
  Tmax: ~0.083 to 0.25 h
[1]; [9]
  Ratio Cmax(alkylsacch)/Cmax(No alkylsacch): ≦1.5
  Tmax: ~1 to 2 h
[1]; [10]
  Ratio Cmax(alkylsacch)/Cmax(No alkylsacch): ≦1.5
  Tmax: ~1 to 2 h
[1]; [11]
  Ratio Cmax(alkylsacch)/Cmax(No alkylsacch): ≧1.5
  Tmax: ~1 to 2 h
[1]; [12]
  Ratio Cmax(alkylsacch)/Cmax(No alkylsacch): ≧1.5
  Tmax: ~0.083 to 0.25 h
[1]; [13]
  Ratio Cmax(alkylsacch)/Cmax(No alkylsacch): ≧1.5
  Tmax: ~0.083 to 0.25 h
[2]; eye drops surfactant plus glucagon in rats previously treated with surfactant plus insulin eye drops
  glucagon absorption / blood D-glucose values: increase significantly
[2]; time 130 min
  Blood Glucose Concentration: 95 mg/dL
[2]; time 140 min
  Blood Glucose Concentration: 99 mg/dL
[2]; time 150 min
  Blood Glucose Concentration: 132 mg/dL
[2]; time 160 min
  Blood Glucose Concentration: 157 mg/dL
[2]; time 170 min
  Blood Glucose Concentration: 171 mg/dL
[2]; time 180 min
  Blood Glucose Concentration: 180 mg/dL
[2]; time 190 min
  Blood Glucose Concentration: 189 mg/dL
[3]; 0.5% surfactant, time −10 min, before insulin eye drops
  Blood Glucose Concentration: 287 mg/dL
[3]; 0.5% surfactant, time −20 min, before insulin eye drops
  Blood Glucose Concentration: 249 mg/dL
[3]; eye drops 0.2% insulin + 0.5% enhancer
  hypoglycemic effect / insulin absorption enhancement: prompt and sustained fall in blood glucose levels
[3]; insulin eye drops + 0.5% surfactant, time 0 min
  Blood Glucose Concentration: 337 mg/dL
[3]; insulin eye drops + 0.5% surfactant, time 10 min
  Blood Glucose Concentration: 304 mg/dL
[3]; insulin eye drops + 0.5% surfactant, time 20 min
  Blood Glucose Concentration: 292 mg/dL
[3]; insulin eye drops + 0.5% surfactant, time 30 min
  Blood Glucose Concentration: 221 mg/dL
[3]; insulin eye drops + 0.5% surfactant, time 40 min
  Blood Glucose Concentration: 164 mg/dL
[3]; insulin eye drops + 0.5% surfactant, time 50 min
  Blood Glucose Concentration: 138 mg/dL
[3]; insulin eye drops + 0.5% surfactant, time 60 min
  Blood Glucose Concentration: 114 mg/dL
[3]; insulin eye drops + 0.5% surfactant, time 70 min
  Blood Glucose Concentration: 104 mg/dL
[3]; insulin eye drops + 0.5% surfactant, time 80 min
  Blood Glucose Concentration: 110 mg/dL
[3]; insulin eye drops + 0.5% surfactant, time 90 min
  Blood Glucose Concentration: 120 mg/dL
[3]; insulin eye drops + 0.5% surfactant, time 100 min
  Blood Glucose Concentration: 92 mg/dL
[3]; insulin eye drops + 0.5% surfactant, time 110 min
  Blood Glucose Concentration: 81 mg/dL
[3]; insulin eye drops + 0.5% surfactant, time 120 min
  Blood Glucose Concentration: 87 mg/dL
[3]; ocular insulin, concentration not given
  absorption enhancing activity by alkyl chain length: less absorption enhancing activity
